According to patent US20210002242A1, “DIACYLGLYCEROL LACTONE COMPOUND, PREPARATION METHOD THEREFOR, AND IMMUNOSTIMULATOR CONTAINING SAME AS ACTIVE INGREDIENT” (priority 2018, published 2021):

Key:
CXCL8 (IL-8) = test: Increase in expression of CXCL8 (IL-8) in THP-1 cells, human IL-8 ELISA of culture supernatant; type: cell-based; settings: for CXCL8 [IL-8] concentration (pg/μl, average ± deviation): THP-1 cells, 24 hours, supernatant
Method: In RPMI (Hyclone, Thermo Scientific) medium to which 10% Fetal Bovine Serum was added, THP-1 cells, a human macrophage family, were suspended at a concentration of 1×10^5 cells/ml, and culture was conducted in a 5% CO2 humidified incubator at 37° C. The cultured THP-1 cells were inoculated into a 12 well plate by 1×10^6 cells/ml and stabilized for 30 minutes. Then, the culture solution was treated with a diacylglycerol lactone compound of the type shown in Table 2 below for 1 hour and then was treated with Gemcitabine (2 μg/ml) of a cell stimulator, and subsequent further incubation was conducted for 24 hours. Thereafter 1.5 ml of the culture supernatant was collected for each well and centrifuged (at 3000 rpm, 5 minutes) to recover the supernatant. The CXCL8 (IL-8) level in the recovered supernatant was measured according to the manual provided by the human IL-8 ELISA set (BD Biosciences). The day before ELISA was carried out, the IL-8 capture antibody was diluted in phosphate buffered saline, coated on a microwell, and then stored at 4° C. overnight. Each well was washed three times with a washing buffer solution and then blocked with 2% Bovine Serum Albumin (BSA) for 1 hour at room temperature. After washing with washing buffer solution three times, 100 μl of sample was dispensed into each well and left at room temperature for 2 hours. Detection antibody which was washed 3 times with washing buffer and diluted was dispensed into each well and allowed to react at room temperature for 1 hour and left at room temperature for 1 hour. Thereafter, the secondary HRP conjugated antibody was reacted at room temperature for 30 minutes, washed three times with a washing buffer, and treated with 50 μl of stop solution for each well, and then the optical density was measured at 450 nm with an ELISA microplate leader.

RAW264.7 cells = test: Cytotoxicity assessment, cell viability by EZ-Cytox (WST), OD 450 nm; type: cell-based, mouse; settings: 100 μg/ml, 24 hours
Method: In DMEM (Dulbecco Modified Eagle Medium) medium with 10% Fetal Bovine Serum added, RAW264.7 cells, which are cells of the mouse macrophage family, were suspended at a concentration of 1×10^5 cells/ml, and then were inoculated into 96 well plates by 100 μl, and culture was conducted for 15 hours. […] According to the EZ-CYTOX (Daeillab_EZ-1000) manual for measuring the amount of living cells using WST, 10 μl of EZ-Cytox was added to each well and reacted for up to 2 hours from 30 minutes, and then an optical density (OD) at 450 nm was measured.

[1] = compound 100 μg/ml for 1 hour, then Gemcitabine 2 μg/ml

## CCCCCC=CCC=CCCCCCCCC(=O)OCC1(COC(=O)C(C)CC)CCC(=O)O1 (mixture of isomers) [EC-A126]
CXCL8 (IL-8); [1]
  CXCL8 [IL-8] concentration (pg/μl, average ± deviation): 352.96 ± 0.45 pg/µL

## CCCCC/C=C\C/C=C\CCCCCCCC(=O)OCC1(COC(=O)CC)CCC(=O)O1 (racemic) [EC-A115]
CXCL8 (IL-8); [1]
  CXCL8 [IL-8] concentration (pg/μl, average ± deviation): 1202.80 ± 38.09 pg/µL

## CCCCC/C=C\C/C=C\CCCCCCCC(=O)OCC1(COC(=O)CCC)CCC(=O)O1 (racemic) [EC-A116]
CXCL8 (IL-8); [1]
  CXCL8 [IL-8] concentration (pg/μl, average ± deviation): 865.54 ± 12.31 pg/µL
RAW264.7 cells
  RAW264.7 cell viability: 141.09 ± 5.01%

## CCCCC/C=C\C/C=C\CCCCCCCC(=O)OCC1(COC(=O)CCCC)CCC(=O)O1 (racemic) [EC-A117]
CXCL8 (IL-8); [1]
  CXCL8 [IL-8] concentration (pg/μl, average ± deviation): 568.12 ± 8.21 pg/µL

## CCCCC/C=C\C/C=C\CCCCCCCC(=O)OCC1(COC(=O)CCCCC)CCC(=O)O1 (racemic) [EC-A118]
CXCL8 (IL-8); [1]
  CXCL8 [IL-8] concentration (pg/μl, average ± deviation): 622.16 ± 6.61 pg/µL

## CCCCC/C=C\C/C=C\CCCCCCCC(=O)OCC1(COC(=O)CCCCCC)CCC(=O)O1 (racemic) [EC-A119]
CXCL8 (IL-8); [1]
  CXCL8 [IL-8] concentration (pg/μl, average ± deviation): 343.61 ± 7.75 pg/µL

## CCCCC/C=C\C/C=C\CCCCCCCC(=O)OCC1(COC(=O)CCCCCCCC)CCC(=O)O1 (racemic) [EC-A120]
CXCL8 (IL-8); [1]
  CXCL8 [IL-8] concentration (pg/μl, average ± deviation): 237.80 ± 3.64 pg/µL

## CCCCC/C=C\C/C=C\CCCCCCCC(=O)OCC1(COC(=O)CCCCCCCCCCC)CCC(=O)O1 (racemic) [EC-A121]
CXCL8 (IL-8); [1]
  CXCL8 [IL-8] concentration (pg/μl, average ± deviation): 215.38 ± 4.33 pg/µL
RAW264.7 cells
  RAW264.7 cell viability: 114.25 ± 33.11%

## CCCCC/C=C\C/C=C\CCCCCCCC(=O)OCC1(COC(=O)CCCCCCCCCCCCC)CCC(=O)O1 (racemic) [EC-A122]
CXCL8 (IL-8); [1]
  CXCL8 [IL-8] concentration (pg/μl, average ± deviation): 190.06 ± 4.56 pg/µL
RAW264.7 cells
  RAW264.7 cell viability: 105.48 ± 3.92%

## CCCCC/C=C\C/C=C\CCCCCCCC(=O)OCC1(COC(=O)C(C)C)CCC(=O)O1 (racemic) [EC-A124]
CXCL8 (IL-8); [1]
  CXCL8 [IL-8] concentration (pg/μl, average ± deviation): 663.45 ± 2.96 pg/µL

## CCCCC/C=C\C/C=C\CCCCCCCC(=O)OCC1(COC(=O)C(C)(C)C)CCC(=O)O1 (racemic) [EC-A125]
CXCL8 (IL-8); [1]
  CXCL8 [IL-8] concentration (pg/μl, average ± deviation): 252 ± 11.86 pg/µL

## CCCCC/C=C\C/C=C\CCCCCCCC(=O)OCC1(COC(=O)C2CC2)CCC(=O)O1 (racemic) [EC-A127]
CXCL8 (IL-8); [1]
  CXCL8 [IL-8] concentration (pg/μl, average ± deviation): 532.32 ± 1.82 pg/µL

## CCCCC/C=C\C/C=C\CCCCCCCC(=O)OCC1(COC(=O)C2CCCCC2)CCC(=O)O1 (racemic) [EC-A128]
CXCL8 (IL-8); [1]
  CXCL8 [IL-8] concentration (pg/μl, average ± deviation): 351.03 ± 7.75 pg/µL

## CCCCCCCCCCCCCCCC(=O)OCC1(COC(=O)C(C)C)CCC(=O)O1 (racemic) [EC-A131]
CXCL8 (IL-8); [1]
  CXCL8 [IL-8] concentration (pg/μl, average ± deviation): 1256.19 ± 15.96 pg/µL
RAW264.7 cells
  RAW264.7 cell viability: 100.25 ± 14.78%

## CCCCCCCCCCCCCCCC(=O)OCC1(COC(=O)C(C)(C)C)CCC(=O)O1 (stereo not shown) [EC-A132]
CXCL8 (IL-8); [1]
  CXCL8 [IL-8] concentration (pg/μl, average ± deviation): 921.35 ± 52.46 pg/µL
RAW264.7 cells
  RAW264.7 cell viability: 96.58 ± 5.01%

## CCCCCCCCCCCCCCCC(=O)OCC1(COC(=O)C(C)CC)CCC(=O)O1 (stereo not shown) [EC-A133]
CXCL8 (IL-8); [1]
  CXCL8 [IL-8] concentration (pg/μl, average ± deviation): 1176.67 ± 29.42 pg/µL
RAW264.7 cells
  RAW264.7 cell viability: 114.45 ± 3.46%

## CCCCCCCCCCCCCCCC(=O)OCC1(COC(=O)C2CC2)CCC(=O)O1 (stereo not shown) [EC-A134]
CXCL8 (IL-8); [1]
  CXCL8 [IL-8] concentration (pg/μl, average ± deviation): 1266.03 ± 2.05 pg/µL
RAW264.7 cells
  RAW264.7 cell viability: 110.06 ± 4.19%

## CCCCCCCCCCCCCCCC(=O)OCC1(COC(=O)C2CCCCC2)CCC(=O)O1 (stereo not shown) [EC-A135]
CXCL8 (IL-8); [1]
  CXCL8 [IL-8] concentration (pg/μl, average ± deviation): 310.87 ± 14.37 pg/µL

## CCCCCCCCCCCCCCCC(=O)OCC1(COC(=O)CCCCCCCCCCC)CCC(=O)O1 (stereo not shown) [EC-A136]
CXCL8 (IL-8); [1]
  CXCL8 [IL-8] concentration (pg/μl, average ± deviation): 138.93 ± 2.96 pg/µL
RAW264.7 cells
  RAW264.7 cell viability: 95.54 ± 3.01%

## CCCCCCCCCCCCCCCC(=O)OCC1(COC(=O)CCCCCCCCCCCCC)CCC(=O)O1 (stereo not shown) [EC-A137]
CXCL8 (IL-8); [1]
  CXCL8 [IL-8] concentration (pg/μl, average ± deviation): 133.12 ± 8.43 pg/µL
RAW264.7 cells
  RAW264.7 cell viability: 93.87 ± 8.85%

## Nc1ccn([C@@H]2O[C@H](CO)[C@@H](O)C2(F)F)c(=O)n1 [Gemcitabine, reference compound]
CXCL8 (IL-8); THP-1 cells treated with Gemcitabine
  secretion of CXCL8 (IL-8) chemokine, increase compared to the negative control group: about five
CXCL8 (IL-8); Gemcitabine 2 μg/ml alone
  CXCL8 [IL-8] concentration (pg/μl, average ± deviation): 101.83 ± 1.59 pg/µL
